No end group written: not given here.
Tests used:
Assay in all cases: biochemical
DRB1*0301 = DRB1*0301 (Homo sapiens, UniProt P01903+P01911, A100K/A102G/A103R/A169T/F55Y/I96L/K41T/L162R/M171V/P40S/Q125H/Q178H/Q39Y/R42S/S66N/T106N/T262R/W38E/Y61H); type: binding
DRB1*1201 = DRB1*1201 (Homo sapiens, UniProt P01903+P01911, A100R/A169T/D57E/D86V/F55L/H45Y/K41T/L162R/M171V/P40S/Q125H/Q178H/Q39Y/Q99D/R42G/S66L/T262R/V114A/V67L/W38E/Y59H/Y61H/Y89S); type: binding
DRB1*1101 = DRB1*1101 (Homo sapiens, UniProt P01903+P01911, A100R/A169T/A87E/I96F/K41T/L162R/M171V/P40S/Q125H/Q178H/Q39Y/Q99D/R42S/S66Y/T262R/V115G/W38E); settings: Binding affinity DRB1 *1101
Sequence of DRB1*1101 (P01903 26-254 limits assumed, other chains not shown): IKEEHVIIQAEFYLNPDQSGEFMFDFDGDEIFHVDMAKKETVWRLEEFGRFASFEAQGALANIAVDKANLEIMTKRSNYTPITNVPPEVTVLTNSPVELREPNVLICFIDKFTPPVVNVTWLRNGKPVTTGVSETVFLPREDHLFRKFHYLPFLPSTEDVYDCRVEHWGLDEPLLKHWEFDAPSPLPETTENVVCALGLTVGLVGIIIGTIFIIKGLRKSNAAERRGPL

DRB1*0405 = DRB1*0405 (Homo sapiens, UniProt P01903+P01911, A100R/A169T/D86S/F76Y/I96L/K127E/L162R/M171V/N62H/P40V/Q125Y/R42H/S133A/S149N/S66Y/V115G/V209L/W38E); type: binding
DRB5*0101 = DRB5*0101 (Homo sapiens, UniProt P01903+Q30154); settings: Binding affinity DRB5 *0101
DRB1*0901 = DRB1*0901 (Homo sapiens, UniProt P01903+P01911, A100R/A103E/D57H/D86V/F55Y/F60I/F76Y/I96F/K127E/L162R/M171V/P40D/Q125H/Q99R/R33Q/R42F/S133A/S66N/T210M/V115G/W38K/Y107V/Y59G/Y89S); type: binding
DRB4*0101 = DRB4*0101 (Homo sapiens, UniProt P01903+P13762, G164S); type: binding
DRB1*0802 = DRB1*0802 (Homo sapiens, UniProt P01903+P01911, A100R/A103L/A169T/F76Y/H45Y/I96F/K41T/L162R/M171V/P40S/Q125H/Q178H/Q39Y/Q99D/R218S/R42G/S66Y/V115G/W38E); type: binding
DR7 (DRB1*0701) = DR7 (DRB1*0701) (Homo sapiens, UniProt P01903+P01911, A100R/A102G/A103Q/D57E/D86V/E43K/F76Y/K127E/L162R/M171V/P40G/Q125H/Q99D/R33Q/R42Y/R54Q/S133A/S66F/T210M/V115G/Y107V/Y59L/Y89S); type: binding
DR4w4 (DRB1*0401) = DR4w4 (DRB1*0401) (Homo sapiens, UniProt P01903+P01911, A100K/A169T/F76Y/I96L/K127E/L162R/M171V/N62H/P40V/Q125Y/R42H/S133A/S149N/S66Y/V115G/V209L/W38E); type: binding
DRB1*1501 = DRB1*1501 (Homo sapiens, UniProt P01903+P01911); type: binding
DR1 (DRB1*0101) = DR1 (DRB1*0101) (Homo sapiens, UniProt P01903+P01911, A100R/D57E/F55L/F60I/F76Y/I96L/L162R/M171V/P40L/Q125E/R42F/V115G/Y59C); type: binding
DRB1*1302 = DRB1*1302 (Homo sapiens, UniProt P01903+P01911, A100E/A169T/K41T/L162R/M171V/P40S/Q125H/Q178H/Q39Y/Q99D/R42S/S66N/T262R/V115G/W38E/Y61H); type: binding
Sequence of DRB1*1302 (P01903 26-254 limits assumed, other chains not shown): as above

Sequence of DRB1*0301 (P01903 26-254 limits assumed, other chains not shown): as above

| Molecule | IC50 (DRB1*0301) | IC50 (DRB1*1201) | IC50 (DRB1*1101) | IC50 (DRB1*0405) | IC50 (DRB5*0101) | IC50 (DRB1*0901) | IC50 (DRB4*0101) | IC50 (DRB1*0802) | IC50 (DR7 (DRB1*0701)) | IC50 (DR4w4 (DRB1*0401)) | IC50 (DRB1*1501) | IC50 (DR1 (DRB1*0101)) | IC50 (DRB1*1302) |
| --- | --- | --- | --- | --- | --- | --- | --- | --- | --- | --- | --- | --- | --- |
| CC(C)C[C@H](NC(=O)[C@H](CO)NC(=O)[C@H](CC(C)C)NC(=O)[C@H](CO)NC(=O)[C@H](C)NC(=O)[C@H](C)NC(=O)[C@H](CCCNC(=N)N)NC(=O)[C@H](C)NC(=O)[C@H](CC(C)C)NC(=O)[C@H](CC(C)C)NC(=O)[C@H](CC(C)C)NC(=O)[C@@H]1CCCN1C(=O)[C@H](C)NC(=O)[C@H](C)N)C(=O)NCC(=O)O [Peptide 68.0019] | > 20000 nM | 564 nM | – | – | – | – | – | – | – | – | – | – | – |
| CC(C)C[C@H](NC(=O)[C@H](CO)NC(=O)[C@H](CC(C)C)NC(=O)[C@H](CO)NC(=O)[C@H](C)NC(=O)[C@H](C)NC(=O)[C@H](CCCNC(=N)N)NC(=O)[C@H](C)NC(=O)[C@H](CC(C)C)NC(=O)[C@H](CC(C)C)NC(=O)[C@H](CC(C)C)NC(=O)[C@@H]1CCCN1C(=O)[C@H](C)N)C(=O)NCC(=O)N[C@@H](Cc1ccccc1)C(=O)O [Peptide 68.0020] | > 20000 nM | 225 nM | – | – | – | – | – | – | – | – | – | – | – |
| CC[C@H](C)[C@H](NC(=O)[C@H](CO)NC(=O)[C@@H](NC(=O)CN)C(C)C)C(=O)N[C@@H](Cc1c[nH]c2ccccc12)C(=O)N[C@@H](CC(N)=O)C(=O)N1CCC[C@H]1C(=O)N[C@H](C(=O)N[C@@H](CC(C)C)C(=O)N[C@@H](CC(C)C)C(=O)N[C@@H](Cc1c[nH]c2ccccc12)C(=O)N[C@@H](CCC(N)=O)C(=O)N1CCC[C@H]1C(=O)N[C@H](C(=O)N1CCC[C@H]1C(=O)O)[C@@H](C)CC)[C@@H](C)CC [Peptide 68.0034] | > 20000 nM | 3900 nM | – | – | – | – | – | – | – | – | – | – | – |
| CC[C@H](C)[C@H](NC(=O)[C@H](CC(C)C)NC(=O)[C@H](CCCCN)NC(=O)[C@H](CCCCN)NC(=O)[C@@H](N)Cc1ccc(O)cc1)C(=O)N[C@@H](CCSC)C(=O)N[C@@H](Cc1ccc(O)cc1)C(=O)N[C@@H](CO)C(=O)N[C@@H](C)C(=O)N[C@@H](Cc1c[nH]cn1)C(=O)N[C@@H](CC(=O)O)C(=O)N[C@H](C(=O)N[C@H](C(=O)N[C@H](C(=O)N[C@@H](CO)C(=O)O)C(C)C)[C@@H](C)O)[C@@H](C)O [Peptide 68.0049] | > 20000 nM | 928 nM | – | – | – | – | – | – | – | – | – | – | – |
| CC[C@H](C)[C@H](NC(=O)[C@H](Cc1c[nH]c2ccccc12)NC(=O)[C@@H](NC(=O)[C@@H](NC(=O)[C@H](CO)NC(=O)[C@H](CC(C)C)NC(=O)[C@@H](N)[C@@H](C)O)C(C)C)[C@@H](C)O)C(=O)NCC(=O)N[C@@H](C)C(=O)N[C@@H](C)C(=O)N1CCC[C@H]1C(=O)N[C@@H](CC(C)C)C(=O)N[C@H](C(=O)N[C@@H](CC(C)C)C(=O)N[C@@H](CO)C(=O)O)[C@@H](C)CC [Peptide 68.0058] | > 20000 nM | 55 nM | – | – | – | – | – | – | – | – | – | – | – |
| CC[C@H](C)[C@H](NC(=O)[C@H](CS)NC(=O)[C@H](Cc1c[nH]cn1)NC(=O)[C@H](C)N)C(=O)N[C@@H](CCCNC(=N)N)C(=O)N[C@@H](CC(N)=O)C(=O)N[C@@H](CCCCN)C(=O)N[C@@H](CO)C(=O)N[C@H](C(=O)N[C@H](C(=O)N[C@@H](CC(C)C)C(=O)N[C@@H](CC(C)C)C(=O)NCC(=O)N[C@@H](CCCNC(=N)N)C(=O)N[C@@H](Cc1c[nH]cn1)C(=O)O)[C@@H](C)CC)C(C)C [Peptide 68.0066] | > 20000 nM | 160 nM | – | – | – | – | – | – | – | – | – | – | – |
| CC(C)C[C@H](NC(=O)[C@@H]1CCCN1C(=O)[C@H](Cc1c[nH]cn1)NC(=O)[C@@H]1CCCN1C(=O)[C@H](Cc1ccccc1)NC(=O)[C@H](CO)NC(=O)[C@H](Cc1c[nH]cn1)NC(=O)[C@H](CO)NC(=O)[C@@H](NC(=O)[C@H](CCC(N)=O)NC(=O)[C@H](Cc1ccccc1)NC(=O)[C@@H](NC(=O)[C@H](CCC(N)=O)NC(=O)CN)C(C)C)C(C)C)C(=O)N[C@@H](Cc1ccc(O)cc1)C(=O)O [Peptide 68.0069] | > 20000 nM | 557 nM | – | – | – | – | – | – | – | – | – | – | – |
| CC[C@H](C)[C@H](NC(=O)[C@H](Cc1c[nH]c2ccccc12)NC(=O)[C@H](CCCCN)NC(=O)[C@H](CCCNC(=N)N)NC(=O)[C@H](Cc1ccc(O)cc1)NC(=O)[C@H](Cc1c[nH]cn1)NC(=O)[C@@H](NC(=O)[C@@H](NC(=O)[C@H](CCCCN)NC(=O)[C@@H](NC(=O)[C@H](Cc1ccc(O)cc1)NC(=O)[C@H](CC(C)C)NC(=O)[C@H](CO)NC(=O)[C@@H]1CCCN1C(=O)[C@@H](N)CCCNC(=N)N)[C@@H](C)O)C(C)C)C(C)C)C(=O)O [Peptide 68.0082] | > 20000 nM | 4160 nM | – | – | – | – | – | – | – | – | – | – | – |
| CC[C@H](C)[C@H](NC(=O)CNC(=O)[C@H](CCC(=O)O)NC(=O)[C@H](Cc1c[nH]cn1)NC(=O)[C@@H](NC(=O)[C@H](Cc1ccc(O)cc1)NC(=O)[C@H](Cc1ccc(O)cc1)NC(=O)[C@H](CC(C)C)NC(=O)CN)C(C)C)C(=O)N[C@@H](CCCNC(=N)N)C(=O)N[C@H](C(=O)N[C@@H](Cc1ccc(O)cc1)C(=O)N[C@@H](Cc1ccccc1)C(=O)N[C@H](C(=O)N[C@@H](CCC(N)=O)C(=O)O)C(C)C)[C@@H](C)O [Peptide 90.0171] | 689 nM | – | 5360 nM | 4660 nM | > 20000 nM | 1000 nM | 1.9 nM | 7380 nM | 5580 nM | 668 nM | 1620 nM | 26 nM | 532 nM |
| AKLMSNLLSIPETCM [Peptide 89.0066] | 12800 nM | – | 14600 nM | 34 nM | > 20000 nM | 9140 nM | 421 nM | > 20000 nM | 388 nM | 99 nM | 3430 nM | 323 nM | 12 nM |
| ETCMLIQPPKLRSSV [Peptide 89.0029] | > 20000 nM | – | – | 1560 nM | – | 19500 nM | 81 nM | 5080 nM | 354 nM | 901 nM | 1700 nM | 60 nM | 3050 nM |
| IIHLKGDKNSLKCLR [Peptide 90.0218] | 42 nM | – | – | 12700 nM | 9920 nM | – | 1440 nM | – | – | 347 nM | 137 nM | – | 1330 nM |
| KHIRLLECVLMYKARE [Peptide 1601.44] | 72 nM | – | 613 nM | 236 nM | 1630 nM | 7480 nM | 39 nM | 1770 nM | 6700 nM | 67 nM | 74 nM | 120 nM | 418 nM |
| KIGMIDDVTPISWTY [Peptide 90.0087] | 70 nM | – | > 20000 nM | > 20000 nM | > 20000 nM | > 20000 nM | 3120 nM | 8370 nM | > 20000 nM | 20 nM | 4460 nM | 3220 nM | 9.8 nM |
| LYGVSFMELIRPFQS [Peptide 89.0041] | > 20000 nM | – | 39 nM | 1800 nM | 6040 nM | 64 nM | 2.2 nM | – | – | 5210 nM | 1550 nM | – | > 20000 nM |
| QHSFNDDIFDLSEMI [Peptide 90.0152] | 534 nM | – | 4380 nM | 384 nM | – | – | 2.1 nM | 7610 nM | – | 37 nM | 688 nM | 42 nM | 17 nM |

Source: US9340577B2, “HLA binding motifs and peptides and their uses” (priority 1992, dated 2016)
